SMILES strings stand for the structures.

The target of this assay is Sodium channel protein type 5 subunit alpha (Homo sapiens, UniProt Q14524). The experiment in a line: Electrophysiological Assay: Patch voltage clamp electrophysiology allows for the direct measurement and quantification of block of voltage-gated sodium channels (NaV's), and allows the determination of the time- and voltage-dependence of block which has been interpreted as differential binding to the resting, open, and inactivated states of the sodium channel (Hille, B., Journal of General …. In kind it is cell-based, HEK293.
Sequence of Sodium channel protein type 5 subunit alpha (Q14524 whole entry): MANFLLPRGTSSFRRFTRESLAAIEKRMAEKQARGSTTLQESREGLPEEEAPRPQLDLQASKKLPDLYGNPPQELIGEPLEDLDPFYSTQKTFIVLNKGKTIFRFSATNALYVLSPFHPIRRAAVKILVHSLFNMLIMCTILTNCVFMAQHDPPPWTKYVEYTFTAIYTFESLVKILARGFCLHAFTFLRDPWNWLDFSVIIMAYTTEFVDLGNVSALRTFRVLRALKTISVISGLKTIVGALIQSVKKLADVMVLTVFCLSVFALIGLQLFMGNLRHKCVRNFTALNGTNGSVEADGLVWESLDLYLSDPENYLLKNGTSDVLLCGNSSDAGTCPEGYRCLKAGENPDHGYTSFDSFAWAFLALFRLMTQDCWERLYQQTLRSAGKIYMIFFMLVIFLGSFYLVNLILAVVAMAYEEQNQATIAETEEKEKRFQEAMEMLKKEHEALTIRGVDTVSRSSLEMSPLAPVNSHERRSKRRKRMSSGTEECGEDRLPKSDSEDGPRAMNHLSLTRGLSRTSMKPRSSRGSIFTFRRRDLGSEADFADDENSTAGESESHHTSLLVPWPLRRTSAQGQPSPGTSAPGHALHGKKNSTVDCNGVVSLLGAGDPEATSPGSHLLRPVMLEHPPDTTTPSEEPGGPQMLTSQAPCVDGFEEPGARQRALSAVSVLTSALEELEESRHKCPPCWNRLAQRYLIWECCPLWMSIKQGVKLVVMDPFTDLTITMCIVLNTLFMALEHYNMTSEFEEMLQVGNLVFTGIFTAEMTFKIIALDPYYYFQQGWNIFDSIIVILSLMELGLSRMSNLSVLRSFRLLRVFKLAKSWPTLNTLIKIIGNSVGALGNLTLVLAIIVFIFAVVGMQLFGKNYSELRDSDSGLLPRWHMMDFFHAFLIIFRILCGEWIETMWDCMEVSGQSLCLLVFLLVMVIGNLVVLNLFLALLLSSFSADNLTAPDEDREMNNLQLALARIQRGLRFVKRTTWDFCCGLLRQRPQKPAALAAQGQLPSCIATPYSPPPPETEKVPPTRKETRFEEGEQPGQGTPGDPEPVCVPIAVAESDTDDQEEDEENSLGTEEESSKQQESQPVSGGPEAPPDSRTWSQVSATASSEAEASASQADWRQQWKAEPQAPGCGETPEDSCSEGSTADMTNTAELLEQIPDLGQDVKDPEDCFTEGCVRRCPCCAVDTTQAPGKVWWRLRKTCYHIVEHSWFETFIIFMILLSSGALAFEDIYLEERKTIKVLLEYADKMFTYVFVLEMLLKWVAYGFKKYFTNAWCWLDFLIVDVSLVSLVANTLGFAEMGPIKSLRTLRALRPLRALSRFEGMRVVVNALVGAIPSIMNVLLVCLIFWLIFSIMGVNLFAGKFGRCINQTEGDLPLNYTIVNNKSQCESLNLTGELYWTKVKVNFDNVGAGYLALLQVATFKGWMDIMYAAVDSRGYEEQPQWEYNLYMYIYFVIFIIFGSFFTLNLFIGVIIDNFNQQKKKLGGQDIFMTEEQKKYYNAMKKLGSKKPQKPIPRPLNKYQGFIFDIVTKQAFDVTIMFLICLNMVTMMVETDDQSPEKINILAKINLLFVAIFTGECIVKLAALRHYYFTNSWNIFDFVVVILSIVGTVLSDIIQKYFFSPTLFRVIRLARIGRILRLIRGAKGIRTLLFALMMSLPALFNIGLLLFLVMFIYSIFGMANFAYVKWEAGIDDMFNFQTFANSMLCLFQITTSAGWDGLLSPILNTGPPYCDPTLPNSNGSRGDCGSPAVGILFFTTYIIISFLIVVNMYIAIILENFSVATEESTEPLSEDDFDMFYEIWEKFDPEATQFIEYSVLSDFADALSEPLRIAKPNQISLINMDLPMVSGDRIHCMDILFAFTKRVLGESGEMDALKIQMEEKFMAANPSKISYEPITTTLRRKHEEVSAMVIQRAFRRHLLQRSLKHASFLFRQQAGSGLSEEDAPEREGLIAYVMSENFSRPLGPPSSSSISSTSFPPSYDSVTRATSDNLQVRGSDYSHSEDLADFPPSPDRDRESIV
The molecule `CC1(C)CCc2cc(OCc3cc(F)c(C(=O)NS(=O)(=O)N4CCC4)cc3Cl)ccc2O1` returned an IC50 of 0.653 µM.
In turn, `O=C(NS(=O)(=O)N1CCC1)c1cc(C2CC2)c(OCC2(C(F)(F)F)CCCCC2)cc1F` showed an IC50 of 0.35 µM.
On to `O=C(NS(=O)(=O)N1CCC1)c1cc(C2CC2)c(OCC23CC4(F)CC(F)(CC(F)(C4)C2)C3)cc1F`, for which the IC50 amounted to 0.95 µM.
Under `CN(C)S(=O)(=O)NC(=O)c1cc(Cl)c(OCC23CC4CC(CC(C4)C2)C3)cc1F` stands 0.772 µM.
The same measure for `CS(=O)(=O)NC(=O)c1cc(C2CC2)c(OCC23CC4CC(C2)C(F)(F)C(C4)C3)cc1F`: 0.714 µM.
Under `O=C(NS(=O)(=O)N1CCOCC1)c1cc(C2CC2)c(OCC23CC4CC(CC(C4)C2)C3)cc1F` stands 0.014 µM; under `COCCS(=O)(=O)NC(=O)c1cc(C2CC2)c(OCC23CC4CC(CC(C4)C2)C3)cc1F`, 0.101 µM.

The values above are taken from ChEMBL document CHEMBL3638545 (2015).
